Where two headings read alike, the source gives them in different places.

For the data set the following is noted: crystals obtained by the crystallization process of the respective example (pH adjustment, coagulant, pH readjustment, cooling rate vary). On the procedure: As used herein, the term “bulk density” refers to the density measured based on the volume including voids generated between particles when powder is filled into a container. In particular, the density of powder which is measured after treating the powder by tapping a cylinder filled with the powder with a constant force so as to make the powder within the cylinder dense is called tapped bulk density (hereinafter, “BD”).

Consider `CSCC[C@H](N)C(=O)O` [Example 20, L-methionine], for which the “BD (tapped bulk density) of the obtained L-methionine crystals” value (from here on “BD (tapped bulk density)”) is recorded as 760 g/L. For the same compound, the “BD (tapped bulk density)” value (listed as Ex. 20) turned out to be 760 g/L.
Regarding `CSCC[C@H](N)C(=O)O` [Example 19, L-methionine], the “BD (tapped bulk density)” value was 750 g/L. Besides, the “BD (tapped bulk density)” value (listed as Ex. 19) worked out at 750 g/L.
With `CSCC[C@H](N)C(=O)O` [Example 6, L-methionine], the “BD (tapped bulk density)” value was 580 g/L. The “BD (tapped bulk density)” value (listed as Ex. 6) is 580 g/L.
Turning to `CSCC[C@H](N)C(=O)O` [Example 10, L-methionine], the “BD (tapped bulk density)” value is 580 g/L. The “BD (tapped bulk density)” value (listed as Ex. 10) is given as 580 g/L.
Consider `CSCC[C@H](N)C(=O)O` [Comparative Example 7, L-methionine, reference compound], for which the “BD (tapped bulk density)” value is 510 g/L. Besides, where the note is “listed as Comp. Ex. 7”, the “BD (tapped bulk density)” value came to 510 g/L.
For the compound `CSCC[C@H](N)C(=O)O` [Comparative Example 4, L-methionine, reference compound], the “BD (tapped bulk density)” value is 500 g/L. Further, under “listed as Comp. Ex. 4”, the “BD (tapped bulk density)” value came to 500 g/L.
Consider `CSCC[C@H](N)C(=O)O` [Comparative Example 3, L-methionine, reference compound], for which the “BD (tapped bulk density)” value is 500 g/L. For the same compound, under “listed as Comp. Ex. 3”, the “BD (tapped bulk density)” value is on record as 500 g/L.
`CSCC[C@H](N)C(=O)O` [Comparative Example 8, L-methionine, reference compound]: the “BD (tapped bulk density)” value turned out to be 450 g/L. Moreover, the “BD (tapped bulk density)” value (listed as Comp. Ex. 8) was found to be 450 g/L.
As for `CSCC[C@H](N)C(=O)O` [Example 17, L-methionine], the “BD (tapped bulk density)” value stood at 690 g/L. The “BD (tapped bulk density)” value (listed as Ex. 17) came to 690 g/L.
For `CSCC[C@H](N)C(=O)O` [Comparative Example 13, L-methionine, reference compound], the “BD (tapped bulk density)” value is reported as 400 g/L. Further, for the setting “listed as Comp. Ex. 13”, the “BD (tapped bulk density)” value came out at 400 g/L.
As for `CSCC[C@H](N)C(=O)O` [Comparative Example 10, L-methionine, reference compound], the “BD (tapped bulk density)” value is 630 g/L. Also, under “listed as Comp. Ex. 10”, the “BD (tapped bulk density)” value stood at 630 g/L.
For `CSCC[C@H](N)C(=O)O` [Example 18, L-methionine], the “BD (tapped bulk density)” value was 730 g/L. Moreover, the “BD (tapped bulk density)” value (listed as Ex. 18) is on record as 730 g/L.
Turning to `CSCC[C@H](N)C(=O)O` [Example 9, L-methionine], the “BD (tapped bulk density)” value was 560 g/L. Where the note is “listed as Ex. 9”, the “BD (tapped bulk density)” value amounted to 560 g/L.
Turning to `CSCC[C@H](N)C(=O)O` [Comparative Example 1, L-methionine, reference compound], the “BD (tapped bulk density)” value was 190 g/L. Besides, the “BD (tapped bulk density)” value (listed as Comp. Ex. 1) is recorded as 190 g/L.
Turning to `CSCC[C@H](N)C(=O)O` [Example 1, L-methionine], the “BD (tapped bulk density)” value was 370 g/L. Under “listed as Ex. 1”, the “BD (tapped bulk density)” value came to 370 g/L.
In the case of `CSCC[C@H](N)C(=O)O` [Example 5, L-methionine], the “BD (tapped bulk density)” value is 590 g/L. The “BD (tapped bulk density)” value (listed as Ex. 5) is on record as 590 g/L.
Consider `CSCC[C@H](N)C(=O)O` [Example 11, L-methionine], for which the “BD (tapped bulk density)” value was 550 g/L. Further, the “BD (tapped bulk density)” value (listed as Ex. 11) amounted to 550 g/L.
Take `CSCC[C@H](N)C(=O)O` [Comparative Example 5, L-methionine, reference compound]: the “BD (tapped bulk density)” value turned out to be 490 g/L. Moreover, the “BD (tapped bulk density)” value (listed as Comp. Ex. 5) amounted to 490 g/L.
